From paper PMC4168161, “A novel approach for the discovery of chemically diverse anti-malarial compounds targeting the Plasmodium falciparum Coenzyme A synthesis pathway” (Malaria Journal, 2014)

Tests used:
[1] = test system: P. falciparum CoA synthesis pathway; experiment: Coenzyme A chemical rescue assay on P. falciparum; type: cell-based, Plasmodium falciparum; conditions: for IC50 shift upon CoA supplementation: eight-point dose response, fixed CoA (0.8-2 mM), n = 2
Protocol: The well-established P. falciparum imaging assay was modified to allow assessment of chemical rescue with CoA. In brief, sorbitol (5% w/v) synchronization was performed twice, approximately 8 hr apart, on each synchronization day for two consecutive ring cycles, i.e., on day 1 and 3 of assay preparation. On day 2 the culture was split to approximately 2% trophozoite parasitaemia. On day 4 the culture was split to 1-1.5% trophozoite parasitaemia, which yielded approximately 8% ring parasitaemia after 48 hr (on day 5, i.e., the day of the assay set-up). Compound stocks (10 mM in 100% DMSO) were diluted 1:25 in sterile water, less than 24 hr prior to use. An additional 1:10 dilution was performed, resulting in a 1:250 overall compound dilution and a final DMSO concentration of 0.4%. For initial screening, compounds were tested at a final 2 μM concentration. […] The known P. falciparum CoA synthesis inhibitor, panthenol, was prepared as a 100 mM solution in 4% DMSO. The final concentration of the dose response curve of panthenol started at 10 mM and was serially diluted down to 100 nM. CoA was dissolved in water. […] Five μl of the 1:25 diluted test compound or control solutions were added to 384-well CellCarrier imaging plates (PerkinElmer). For the chemical rescue, 5 μl of CoA solution were added to ‘rescue’ wells and 5 μl water to all control and reference wells, respectively. Parasite culture was added to a final concentration of 1% parasitaemia (% P) and 0.3% haematocrit (% H). Plates were incubated for 72 hr at 37°C, 5% CO2 and 95% humidity. On day 8 the permeabilization and nuclear staining buffer was prepared in PBS containing 10 μg/ml saponin, 0.01% triton X, 5 mM EDTA (all: Sigma) and 0.5 μg/ml 4′,6-diamidino-2-phenylindole (DAPI; Life Technologies). The plates were left for at least 4 hr (typically overnight), before confocal imaging on an Opera™ High Content Screening Platform (PerkinElmer) at 405 nm excitation with a 20x water objective. Automated primary image analysis was performed concurrent with the imaging process, utilizing an Acapella® software (PerkinElmer) script to determine the number of parasites based on object size and fluorescence intensity. Determination of the % growth compared to controls (2 μM artemisinin as positive and 0.4% DMSO as negative control) was performed in Microsoft® Excel 2010. Statistical analysis including IC50 determination and graphical output was performed in GraphPad Prism® 5 using non-linear regression variable slope curve fitting. Cell-based high throughput screening (HTS) entails the distinct benefit that positive hits have already proven effective against the live parasite within its natural host erythrocyte environment. Modifications of an image-based assay were undertaken to identify compounds that interfere with the P. falciparum CoA pathway. The modification involved a chemical rescue approach adapted from a similar method used to investigate apicoplast function. The principle idea of the chemical rescue approach is that supplementation of an unbranched pathway’s end product – in this case CoA - should abrogate, or at least alleviate, negative growth effects of compounds inhibiting any step in the pathway. […] To identify new potential CoA synthesis inhibitors, the CoA chemical rescue approach was used to screen 144 compounds with known antiplasmodial activity identified by HTS in the Avery laboratory, in addition to the MMV malaria box. […] Compounds which rescued growth to at least 50% of control values and two-fold difference compared to treatment alone, were regarded as partial rescue hits.

HEK293 cells = experiment: CoA chemical rescue on HEK293 cells; type: cell-based, human; conditions: dose response with and without CoA, n = 2
Protocol: To assess cytotoxicity of compounds in dose response, a resazurin-based assay was utilized to determine cell viability. In brief, HEK293 cells were grown in DMEM medium (Life Technologies) containing 10% foetal calf serum (FCS; Gibco). Cells were trypsinized, counted and seeded at 2,000 cells per well in 45 μl media into TC-treated 384-well plates (Falcon) and left to adhere overnight at 37°C, 5% CO2 and 95% humidity.
Plates were incubated for 72 hr at 37°C, 5% CO2 and 95% humidity, then the media was removed and replaced by 35 μl of 44 μM resazurin in DMEM without FCS. The plates were incubated for another 4-6 hr at 37°C, 5% CO2 and 95% humidity before reading on an EnVision® Plate Reader (PerkinElmer) using fluorescence excitation/emission settings of 530 nm/595 nm. Determination of the% growth compared to controls (40 μM puromycin as positive and 0.4% DMSO as negative control) was performed in Microsoft® Excel 2010. Statistical analysis including IC50 determination and graphical output was performed in GraphPad Prism® 5 using nonlinear regression variable slope curve fitting.

[2] = compound at ~ IC80, with CoA supplementation
[3] = at 2 μM compound, with CoA supplementation

Row | Compound | CoA rescue (relative parasite number, % of untreated control) [1, 2] | IC50 shift upon CoA supplementation [1] | CoA rescue (relative parasite number, % of untreated control) [1, 3] | cytotoxic effect on HEK293 cells upon CoA addition (HEK293 cells) | CoA rescue hit confirmation ([1]; retest)
1 | CCc1ccc(Nc2cc(C)c3ccc(O)cc3n2)cc1.Cl [MMV000570/C614-0191] | 80% rescue at ~ IC80 | more than doubled | – | – | –
2 | Cc1csc(Sc2ncnc3sccc23)n1 [Amb180780] | 80% rescue at ~ IC80 | greater than six times | – | – | –
3 | CCOc1ccc(Nc2c3ccccc3nc3ccccc23)cc1.Cl [MMV000304/Amb636705] | – | 1.5 times | 80% rescue at 2 μM | reduced upon CoA addition | –
4 | CC(C)=NOC(=O)c1c(C)noc1-c1snnc1C [SPB03400] | 50% rescue at ~ IC80 | 1.5 times | – | – | –
5 | CC(=O)c1ccc2c3c(onc13)-c1ccccc1C2=O [Amb3377585] | 50% rescue at ~ IC80 | greater than six times | – | – | –
6 | COc1ccc2c(=O)cc(C(Cl)(Cl)Cl)oc2c1 [MMV665820/5534045] | – | greater than six times | 80% rescue at 2 μM | – | confirmed as a hit
7 | CC1=CC(=O)C(C(C)C)=C/C1=N/OS(=O)(=O)c1ccccc1 [STK 740987] | – | greater than six times | 50% rescue at 2 μM | – | –
